Test system: Stomoxys calcitrans
Assay: Stable fly repellency and parasiticidal (diptericidal) efficacy on rats (Example 1)
Type: in vivo
Procedure: This study evaluated the effectiveness of a formulation of the invention containing fipronil and permethrin to repel and kill Stomoxys calcitrans on rats after a single administration. Rats in the treatment group (Group 2) were treated once on Day 0 with a topical formulation of the invention containing 9.2 (w/w) fipronil and 41.5% (w/w) permethrin in a solvent system containing DMDA and DGME in a ratio of 0.73:1, DMDA to DGME, to deliver a dose of 30 mg/kg permethrin and 6.7 mg/kg fipronil. Rats in Group 3 were treated with a formulation containing permethrin alone to deliver a dose of 30 mg/kg. The two treatment groups were compared with a control group treated with a solvent system placebo.
Flies are exposed to the treated rats for 1 hr., then removed. Dead flies are counted at the end of the exposure period and at 4 hr and 24 hr post-exposure. […] This finding is significant because fipronil is not known to have repellent activity.
The diptericidal efficacy of the formulations is shown in Table 1 and represented in FIG. 6. The data for repellency are shown in Table 2 and are represented in FIG. 7.

CC1(C)C(C=C(Cl)Cl)C1C(=O)OCc1cccc(Oc2ccccc2)c1 (stereo not shown) [Permethrin]
4 hr % efficacy (dead flies 4 hr post-exposure, single topical treatment Day 0): 82.0%
24 hr % efficacy (dead flies 24 hr post-exposure, single topical treatment Day 0): 74.7%
EOE % efficacy (dead flies at end of 1 hr exposure period, single topical treatment Day 0): 74.2%
% Repellency (single topical treatment Day 0, measured 24 hours after exposure): 41.2%
